Experimental data taken from paper PMC13298843, “Substituent size versus metal binding of inhibitors with variants of influenza endonuclease^” (Journal of inorganic biochemistry, 2025).

Legend:
Type in all cases: binding, influenza A/California/04/2009(H1N1)
Conditions in all cases: 200 µM
WT PAN endonuclease = WT PAN endonuclease (Influenza A virus, UniProt C3W5S0, DEL52-64/INS51G, form not given)
[1] = biological target: I38T mutant PAN endonuclease (Influenza A virus, UniProt C3W5S0, DEL52-64/I38T/INS51G, form not given)
[2] = biological target: E23K mutant PAN endonuclease (Influenza A virus, UniProt C3W5S0, DEL52-64/E23K/INS51G, form not given)

Structure (SMILES): CSc1ccccc1-c1cc(=O)c(O)c(C(=O)O)[nH]1 [Compound 3]
- WT ΔTm (thermal shift) (WT PAN endonuclease): 10.89 ± 0.12 °C
- I38T ΔTm (thermal shift) [1]: 10.86 ± 0.12 °C
- E23K ΔTm (thermal shift) [2]: 7.21 ± 0.15 °C
